The results in this text go back to publication PMC12040169 (PLOS Biology, 2025).

Data set [1] is described as follows: in vitro. To be noted: human, hela cells, % viability.
Data set [2] concerns T1, C. trachomatis L2/434/Bu expressing GFP (CTL2-GFP).
T1 construct: L2/434/Bu GFP intracellular growth in HeLa cells
Kind of data set: microbe, parasite or virus in culture. To be noted: Chlamydia trachomatis, HeLa, 28.5 h; total inclusion area; read-out: % of control remaining. Details: C. trachomatis total inclusion area by high-content imaging, normalised to DMSO. In outline: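 First, bulk GFP and resorufin signals were measured in compound-treated infected cultures. Cells were next fixed and stained with Hoechst. Finally, high-content imaging quantified chlamydial inclusions (area, number) and host nuclei, and MICs were calculated.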

The nature of data set [3]: in vitro. As to conditions: human, hela cells; bulk resorufin, mean of 2. Details: Viability of infected HeLa host cells, resazurin conversion, bulk resorufin fluorescence relative to DMSO.
The subject of data set [4] is T2, CTL2-GFP (C. trachomatis L2/434/Bu, GFP-expressing).
T2 construct: L2/434/Bu, GFP-expressing
Kind of data set: microbe, parasite or virus in culture. Details: Intracellular C. trachomatis growth in HeLa cells, bulk GFP fluorescence relative to DMSO. To be noted: Chlamydia trachomatis, HeLa, 28.5 h; bulk GFP, mean of 2; read-out: % of control remaining. As to the method: MICs were calculated as described above.

As usually defined, the viability is a read-out of living cells in per cent, often relative to untreated cells. For `COc1ccc([C@@H]2CN(C)C[C@H]2NC(=O)Nc2ccc(Cl)c(Cl)c2)cc1OC` [CBK081111], the viability at 28.5 h, 10 µM in the data set “in vitro [1]” amounted to 99.3%. In data set [2], the activity at 1 µM stood at 105%, the activity at 5 µM is 25.8% and the activity at 10 µM turned out to be 3.39%. In “in vitro [3]”, the viability at 28.5 h, 1 µM turned out to be 92.3%; the viability at 28.5 h, 5 µM amounted to 92.2%; the viability at 28.5 h, 10 µM is 88.4%. In data set [4], the activity at 1 µM was 118%, the activity at 5 µM was determined as 21.4% and the activity at 10 µM is 8.62%.
As to `O=C(Nc1ccc(F)c(F)c1)NC1CCC2CN(CCOc3ccccc3)CC2C1` (stereo not shown) [CBK083365T], the viability at 28.5 h, 10 µM in the data set “in vitro [1]” is 105%. In data set [2], the activity at 1 µM worked out at 35.6%, the activity at 5 µM came out at 0.438% and the activity at 10 µM was 0.173%. In addition, in “in vitro [3]”, the viability at 28.5 h, 1 µM came to 89.3%; the viability at 28.5 h, 5 µM was 86.5%; the viability at 28.5 h, 10 µM is 88.8%. In addition, in data set [4], the activity at 1 µM stood at 34.9%, the activity at 5 µM amounted to 8.25% and the activity at 10 µM was 5.26%.
For the compound `COc1cc(CN2CCNCC2)c2ccn(S(=O)(=O)c3cccc(Cl)c3C)c2c1` [CBK144484T], the viability at 28.5 h, 10 µM in the data set “in vitro [1]” was 87.1%. Further, in data set [2], the activity at 1 µM came to 90.6%, the activity at 5 µM came out at 59.5% and the activity at 10 µM amounted to 23.3%. In “in vitro [3]”, the viability at 28.5 h, 1 µM amounted to 104%; the viability at 28.5 h, 5 µM stood at 95.7%; the viability at 28.5 h, 10 µM was 102%. Moreover, in data set [4], the activity at 1 µM stood at 113%, the activity at 5 µM was determined as 109% and the activity at 10 µM was found to be 57.5%.
As to `O=C(NCCc1c[nH]c2ccc(Cl)cc12)c1c(F)ccc(Cl)c1F` [CBK159756], the viability at 28.5 h, 10 µM in the data set “in vitro [1]” was determined as 93%. Moreover, in data set [2], the activity at 1 µM worked out at 92.7%, the activity at 5 µM came out at 39.2% and the activity at 10 µM was 2.12%. In “in vitro [3]”, the viability at 28.5 h, 1 µM was 98.5%; the viability at 28.5 h, 5 µM was found to be 96.7%; the viability at 28.5 h, 10 µM is 94.6%. For the same compound, in data set [4], the activity at 1 µM amounted to 103%, the activity at 5 µM was found to be 35.2% and the activity at 10 µM is 3.33%.
In the case of `CN1CCCN(c2ccc(NS(=O)(=O)c3cccc(F)c3)c3ccccc23)CC1` [CBK200010C], the viability at 28.5 h, 10 µM in the data set “in vitro [1]” was 84.9%. Besides, in data set [2], the activity at 1 µM came out at 77.8%, the activity at 5 µM was determined as 43.7% and the activity at 10 µM was determined as 26.8%. In addition, in the data set “in vitro [3]”, the viability at 28.5 h, 1 µM worked out at 94.4%; the viability at 28.5 h, 5 µM was 100%; the viability at 28.5 h, 10 µM was 95.1%. Also, in data set [4], the activity at 1 µM is 108%, the activity at 5 µM amounted to 66.2% and the activity at 10 µM was found to be 43.7%.
For the compound `CCOc1ccsc1C(=O)NC1Cc2ccccc2C1` [CBK200359], the viability at 28.5 h, 10 µM in “in vitro [1]” was 82.6%. In addition, in data set [2], the activity at 1 µM was found to be 88.7%, the activity at 5 µM turned out to be 0.493% and the activity at 10 µM amounted to 0.44%. Besides, in “in vitro [3]”, the viability at 28.5 h, 1 µM stood at 104%; the viability at 28.5 h, 5 µM worked out at 96.4%; the viability at 28.5 h, 10 µM came out at 93%. For the same compound, in data set [4], the activity at 1 µM amounted to 57.4%, the activity at 5 µM was determined as 3.62% and the activity at 10 µM was 6.67%.
`NCCCNc1ncc(C(=O)NCc2ccccc2)c(NCC2CCCCC2)n1` [CBK215386]: the viability at 28.5 h, 10 µM in “in vitro [1]” amounted to 103%. In addition, in data set [2], the activity at 1 µM was determined as 95.7%, the activity at 5 µM stood at 73.1% and the activity at 10 µM is 19.8%. In addition, in “in vitro [3]”, the viability at 28.5 h, 1 µM was 113%; the viability at 28.5 h, 5 µM amounted to 116%; the viability at 28.5 h, 10 µM is 96.6%. Besides, in data set [4], the activity at 1 µM worked out at 97.9%, the activity at 5 µM was 89.2% and the activity at 10 µM turned out to be 32.4%.
Turning to `O=C(N/N=C/c1c(O)ccc2ccccc12)c1ccc(CO)nc1` [CBK261375], the viability at 28.5 h, 10 µM in the data set “in vitro [1]” worked out at 84.7%. Also, in data set [2], the activity at 1 µM is 112%, the activity at 5 µM was 72.5% and the activity at 10 µM worked out at 32.1%. Further, in the data set “in vitro [3]”, the viability at 28.5 h, 1 µM amounted to 89.8%; the viability at 28.5 h, 5 µM came out at 84.2%; the viability at 28.5 h, 10 µM was determined as 76.9%. Also, in data set [4], the activity at 1 µM came to 130%, the activity at 5 µM amounted to 69% and the activity at 10 µM was 32.3%.
Take `O=C(Nc1cccc(OC(=O)c2cc(S(=O)(=O)N3CCCCC3)ccc2Cl)c1)c1ccco1` [CBK262186]: in “in vitro [1]”, the viability at 28.5 h, 10 µM was found to be 110%. Besides, in data set [2], the activity at 1 µM was determined as 101%, the activity at 5 µM stood at 85.8% and the activity at 10 µM was 33.3%. In the data set “in vitro [3]”, the viability at 28.5 h, 1 µM came to 101%; the viability at 28.5 h, 5 µM came out at 96.6%; the viability at 28.5 h, 10 µM was determined as 100%. In addition, in data set [4], the activity at 1 µM turned out to be 110%, the activity at 5 µM worked out at 106% and the activity at 10 µM was 76.3%.
Consider `OC(CN1CCN(Cc2ccccc2)CC1)Cn1c2ccc(Br)cc2c2cc(Br)ccc21` (stereo not shown) [CBK262203], for which, in “in vitro [1]”, the viability at 28.5 h, 10 µM was found to be 94.4%. Further, in data set [2], the activity at 1 µM came to 102%, the activity at 5 µM was found to be 94.9% and the activity at 10 µM came to 35%. Further, in the data set “in vitro [3]”, the viability at 28.5 h, 1 µM was found to be 94.6%; the viability at 28.5 h, 5 µM was determined as 90.4%; the viability at 28.5 h, 10 µM was 90%. In data set [4], the activity at 1 µM came out at 104%, the activity at 5 µM amounted to 98.6% and the activity at 10 µM was found to be 88.8%.
Regarding `CC1=NN(c2ccccc2)C(=O)/C1=C/Nc1ccc(S(=O)(=O)Nc2nc(C)cc(C)n2)cc1` [CBK262368], in the data set “in vitro [1]”, the viability at 28.5 h, 10 µM turned out to be 106%. In data set [2], the activity at 1 µM turned out to be 70.2%, the activity at 5 µM was found to be 28.2% and the activity at 10 µM turned out to be 14.1%. In addition, in the data set “in vitro [3]”, the viability at 28.5 h, 1 µM is 96.6%; the viability at 28.5 h, 5 µM came out at 93.9%; the viability at 28.5 h, 10 µM was 96.8%. Besides, in data set [4], the activity at 1 µM worked out at 46.9%, the activity at 5 µM came to 21% and the activity at 10 µM stood at 13.7%.
As for `CC1=NN(c2ccc(C)cc2)C(=O)/C1=C\Nc1ccc(S(=O)(=O)Nc2nc(C)cc(C)n2)cc1` [CBK262398], the viability at 28.5 h, 10 µM in “in vitro [1]” was determined as 92.8%. Also, in data set [2], the activity at 1 µM turned out to be 91.7%, the activity at 5 µM is 40.5% and the activity at 10 µM is 18%. In the data set “in vitro [3]”, the viability at 28.5 h, 1 µM is 94.6%; the viability at 28.5 h, 5 µM came to 99.4%; the viability at 28.5 h, 10 µM turned out to be 118%. In addition, in data set [4], the activity at 1 µM was found to be 83.6%, the activity at 5 µM was found to be 16.3% and the activity at 10 µM was determined as 2.4%.
For `Cc1ccc(Cn2c(=N)n(CC(=O)c3cc(C(C)(C)C)c(O)c(C(C)(C)C)c3)c3ccccc32)cc1` [CBK262458B], in the data set “in vitro [1]”, the viability at 28.5 h, 10 µM stood at 82.6%. In data set [2], the activity at 1 µM worked out at 99.9%, the activity at 5 µM amounted to 36.5% and the activity at 10 µM worked out at 52%. In the data set “in vitro [3]”, the viability at 28.5 h, 1 µM was determined as 92.1%; the viability at 28.5 h, 5 µM is 96.7%; the viability at 28.5 h, 10 µM is 101%. Besides, in data set [4], the activity at 1 µM turned out to be 127%, the activity at 5 µM was found to be 56.5% and the activity at 10 µM stood at 91.9%.
